The results in this text go back to US8080567B2, “EP2 receptor agonists” (Asterand UK Limited, priority 2005, dated 2011).

Experiment [1] has as its target T1, human EP4 receptor (Homo sapiens, UniProt P35408).
T1 construct: expressed in transfected cells; HEK-293 is named only for the cAMP assay
Put plainly: Binding ability to human EP receptors, [3H]PGE2 displacement, EP4. The note with it: membranes expressing human EP4 receptor; [3H]PGE2 1 nM; Cheng-Prusoff; read-out: pKi (M) EP4 (converted). As to the method:
(§1) Membranes were prepared from cells stably transfected with human EP receptor cDNA. In brief, cells were cultured to confluency, scraped from culture flasks, and centrifuged (800 g, 8 minutes, 4° C.). Cells were twice washed in ice cold homogenisation buffer containing 10 mM Tris-HCl, 1 mM EDTA.2Na, 250 mM sucrose, 1 mM PMSF, 0.3 mM indomethacin, pH 7.4, homogenised and re-centrifuged as before. The supernatant was stored on ice and pellets re-homogenised and re-spun. Supernatants were pooled and centrifuged at 40000 g, 10 minutes, 4° C. Resultant membrane pellets were stored at −80° C. until use.
(§2) For assay, membranes expressing human EP4, EP3, EP2 or EP1 receptors were incubated in Millipore (MHVBN45) plates containing assay buffer, radiolabelled [^3H]PGE2 and 0.1 to 10 000 nM concentrations of compounds. Incubations were performed at suitable temperatures and for suitable times to allow equilibrium to be reached. Non-specific binding was determined in the presence of 10 uM PGE2. Bound and free radiolabel was separated by vacuum manifold filtration using appropriate wash buffers, and bound radiolabel was determined by scintillation counting. Constituents of each of the buffers are included in table 1 below.
(§3) The affinity or pKi of each compound for each receptor was calculated from the concentration causing 50% radioligand displacement (IC50) using the Cheng-Prusoff equation: […]
(§4) This approach follows that set out in Kenakin, T. P., Pharmacologic analysis of drug receptor interaction. Raven Press, New York, 2nd edition.

In experiment [2] the target is T2, human EP2 receptor (Homo sapiens, UniProt P43116).
T2 construct: expressed in transfected cells; HEK-293 is named only for the cAMP assay
Put plainly: Binding ability to human EP receptors, [3H]PGE2 displacement, EP2. Particulars: membranes expressing human EP2 receptor; [3H]PGE2 3 nM; Cheng-Prusoff; read-out: pKi (M) EP2 (converted). Here is the method:
as §1, §2, §3, §4

T1 sequence (P35408 whole entry): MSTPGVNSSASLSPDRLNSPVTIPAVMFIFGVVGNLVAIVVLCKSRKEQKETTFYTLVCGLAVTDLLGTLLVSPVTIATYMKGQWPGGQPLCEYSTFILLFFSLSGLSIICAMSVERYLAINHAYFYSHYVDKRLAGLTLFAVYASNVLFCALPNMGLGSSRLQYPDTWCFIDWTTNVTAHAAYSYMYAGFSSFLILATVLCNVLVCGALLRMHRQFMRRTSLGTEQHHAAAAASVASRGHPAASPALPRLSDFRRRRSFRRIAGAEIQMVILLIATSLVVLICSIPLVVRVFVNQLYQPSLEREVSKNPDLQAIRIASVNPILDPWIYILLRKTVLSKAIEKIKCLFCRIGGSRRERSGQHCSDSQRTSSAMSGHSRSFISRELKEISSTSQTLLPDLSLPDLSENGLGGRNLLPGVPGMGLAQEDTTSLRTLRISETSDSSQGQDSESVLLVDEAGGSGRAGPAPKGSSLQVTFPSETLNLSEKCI
T2 sequence (P43116 whole entry): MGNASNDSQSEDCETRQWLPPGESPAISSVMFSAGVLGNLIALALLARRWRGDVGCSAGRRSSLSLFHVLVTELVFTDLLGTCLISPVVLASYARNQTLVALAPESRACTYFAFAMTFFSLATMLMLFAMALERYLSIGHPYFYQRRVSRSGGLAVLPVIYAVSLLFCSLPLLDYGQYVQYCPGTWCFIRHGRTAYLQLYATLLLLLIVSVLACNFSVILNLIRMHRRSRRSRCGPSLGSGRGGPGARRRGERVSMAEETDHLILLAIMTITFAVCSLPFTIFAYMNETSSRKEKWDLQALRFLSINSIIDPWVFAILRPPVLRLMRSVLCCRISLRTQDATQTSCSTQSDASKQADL

In the case of `O=C(O)C=Cc1cccc(NC(=O)c2ccc(Oc3ccccc3)o2)c1` [Compound 5, 3-{3-[(5-Phenoxy-furan-2-carbonyl)-amino]-phenyl}-acrylic acid], the results for the Ki in experiment [1] and in experiment [2] were > 1e-06 M and < 1e-07 M, respectively.
As for `O=C(O)C=Cc1cccc(NC(=O)c2ccc(C(=O)c3ccccc3)o2)c1` [Compound 11, 3-{3-[(5-Benzoyl-furan-2-carbonyl)-amino]-phenyl}-acrylic acid], the Ki is > 1e-06 M in experiment [1] and < 1e-07 M in experiment [2].
Taken in the same sequence, the figures for `O=C(O)C=Cc1cccc(Sc2cccc(-c3ccccc3)n2)c1` [Compound 16, 3-[3-(6-Phenyl-pyridin-2-ylsulfanyl)-phenyl]-acrylic acid] were > 1e-06 M and < 1e-06 M.
For `O=C(O)C=Cc1cccc(NC(=O)c2ccc3oc4ccccc4c3c2)c1` [Compound 20, 3-{3-[(Dibenzofuran-2-carbonyl)-amino]-phenyl}-acrylic acid], in that order: > 1e-06 M and < 1e-07 M.
For the molecule `O=C(O)C=Cc1cccc(CC(O)c2ccc(-c3ccccc3)o2)c1` (stereo not shown) [Compound 28, 3-{3-[2-Hydroxy-2-(5-phenyl-furan-2-yl)-ethyl]-phenyl}-acrylic acid], the Ki is > 1e-06 M in experiment [1] and < 1e-06 M in experiment [2].
Taken in the same sequence, the figures for `O=C(O)C=Cc1cccc(C=Cc2ccc(-c3ccccc3)o2)c1` [Compound 29, 3-{3-[2-(5-Phenyl-furan-2-yl)-vinyl]-phenyl}-acrylic acid] were > 1e-06 M and < 1e-06 M.
Taken in the same sequence, the figures for `O=C(O)C=Cc1cccc(-c2nc3cc(-c4ccccc4)ccc3o2)c1` [Compound 34, 3-[3-(5-Phenyl-benzoxazol-2-yl)-phenyl]-acrylic acid] were > 1e-06 M and < 1e-06 M.
For `O=C(O)C=Cc1cccc(NC(=O)c2ccc(-c3ccccc3)o2)n1` [Compound 40, 3-{6-[(5-Phenyl-furan-2-carbonyl)-amino]-pyridin-2-yl}-acrylic acid], in that order: > 1e-06 M and < 1e-06 M.
Regarding `O=C(O)C=Cc1ccc(F)c(NC(=O)c2ccc(-c3ccccc3)o2)c1` [Compound 45, 3-{4-Fluoro-3-[(5-phenyl-furan-2-carbonyl)-amino]-phenyl}-acrylic acid], the Ki was > 1e-06 M in experiment [1] and < 1e-07 M in experiment [2].
For `O=C(O)C=Cc1ccc(Cl)c(NC(=O)c2cc(-c3ccccc3)ccc2F)c1` [Compound 52, 3-{4-Chloro-3-[(4-fluoro-biphenyl-3-carbonyl)-amino]-phenyl}-acrylic acid], in that order: > 1e-07 M and < 1e-08 M.
Taken in the same sequence, the figures for `N=C(Nc1cccc(C=CC(=O)O)c1)c1cc(-c2ccccc2)ccc1F` [Compound 58, 3-{3-[(4-Fluoro-biphenyl-3-carboximidoyl)-amino]-phenyl}-acrylic acid] were > 1e-06 M and < 1e-06 M.
